{"source": "patent US12605396B2", "about": "“Methods of treating mastitis with an orthosomycin antimicrobial compound” (Intervet Inc., priority 2020, dated 2026)", "key": {"S. aureus [1]": {"system": "S. aureus", "assay": "MIC in bacteriological broth (CLSI VET01-A4)", "format": "cell-based, Staphylococcus aureus", "method": "(§1) Minimal inhibitory concentrations (MIC) were determined in bacteriological broth according to Clinical and Laboratory Standard Institute (CLSI) guideline VET01-A4 [1]. The MIC results were interpreted according to the CLSI document VET01-S3 [2]."}, "coa-neg Staph.": {"system": "coa-neg Staph.", "assay": "MIC in bacteriological broth (CLSI VET01-A4)", "format": "cell-based, coagulase-negative staphylococci", "method": "as §1"}, "Strep. agalactiae": {"system": "Strep. agalactiae", "assay": "MIC in bacteriological broth (CLSI VET01-A4)", "format": "cell-based, Streptococcus agalactiae", "method": "as §1"}, "Strep. dysgalactiae": {"system": "Strep. dysgalactiae", "assay": "MIC in bacteriological broth (CLSI VET01-A4)", "format": "cell-based, Streptococcus dysgalactiae", "method": "as §1"}, "S. uberis": {"system": "S. uberis", "assay": "MIC in bacteriological broth (CLSI VET01-A4)", "format": "cell-based, Streptococcus uberis", "method": "as §1"}, "Truep. pyogenes": {"system": "Truep. pyogenes", "assay": "MIC in bacteriological broth (CLSI VET01-A4)", "format": "cell-based, Trueperella pyogenes", "method": "as §1"}, "S. aureus [2]": {"system": "S. aureus", "assay": "MIC in full cream UHT milk with alamar Blue", "format": "cell-based, Staphylococcus aureus", "method": "(§2) For MIC determination in milk, the in vitro activity was determined by measuring the minimum inhibitory concentrations (MIC) according to CLSI document VET01-A4 [1] using full cream UHT milk as test medium. About 2 h before the end of the incubation 10 μL of alamar Blue® was added to each well of the microdilution trays, resulting in a final concentration of 10% of alamar Blue®. Blue color of the medium indicated no living cells (no bacterial growth) red/pink to white color of the medium indicated living cells (bacterial growth). The MIC results were interpreted according to the CLSI document VET01-S3 [2]."}, "Streptococcus uberis": {"system": "Streptococcus uberis", "assay": "Experimental mastitis infection model in lactating cows", "format": "in vivo", "conditions": "oily suspension 200 mg/quarter intramammary, three consecutive times after milking, 21 days observation, FIG. 1", "method": "In short, the hind quarters of 10 healthy cows were infected with Streptococcus uberis by intramammary application of 100 bacteria per quarter. At appearance of clinical signs of the challenged quarters (abnormal milk appearance, swollen/hard quarter, pain on palpation) one hind quarter of each cow was treated with an oily suspension of avilamycin at a dose of 200 mg/quarter at three consecutive times after milking. Furthermore, the neighboring infected hint quarter showing clinical signs was mock treated with formulation vehicle at the identical dose volume and schedule. Milk samples were analyzed for S. uberis over a period of 21 days."}, "[3]": {"system": "mastitis-causing pathogens", "assay": "Antimicrobial activity against mastitis-causing pathogens (overall statement)", "format": "cell-based", "conditions": "broth-dilution assay and milk", "method": "as §1, §2"}, "[4]": {"conditions": "bacteriological broth, 50 S. aureus isolates tested"}, "[5]": {"conditions": "broth, of 50 S. aureus isolates"}, "[6]": {"conditions": "bacteriological broth, 30 coa-neg Staph. isolates tested"}, "[7]": {"conditions": "broth, of 30 coa-neg Staph. isolates"}, "[8]": {"conditions": "bacteriological broth, 30 Strep. agalactiae isolates tested"}, "[9]": {"conditions": "broth, of 30 Strep. agalactiae isolates"}, "[10]": {"conditions": "bacteriological broth, 29 Strep. dysgalactiae isolates tested"}, "[11]": {"conditions": "broth, of 29 Strep. dysgalactiae isolates"}, "[12]": {"conditions": "bacteriological broth, 30 S. uberis isolates tested"}, "[13]": {"conditions": "broth, of 30 S. uberis isolates"}, "[14]": {"conditions": "bacteriological broth, 30 Truep. pyogenes isolates tested"}, "[15]": {"conditions": "broth, of 30 Truep. pyogenes isolates"}}, "data": [{"smiles": "COC[C@H]1O[C@@H](OC2OC[C@@H]3O[C@]4(O[C@H]3[C@H]2OC(=O)C(C)C)O[C@H](C)[C@@](O)(C(C)=O)[C@@H]2OCO[C@H]24)[C@@H](OC)[C@@H](O)[C@@H]1O[C@@H]1O[C@H](C)[C@H](OC)[C@H](O[C@H]2C[C@@]3(C)OC4(C[C@@H](O)[C@H](O[C@H]5C[C@@H](O)[C@H](OC(=O)c6c(C)c(Cl)c(O)c(Cl)c6OC)[C@@H](C)O5)[C@@H](C)O4)O[C@@H]3[C@@H](C)O2)[C@H]1O", "note": "(some centres unmarked) [avilamycin]", "values": [{"measurement": "MIC50", "setting": "S. aureus [1]; [4]", "value": 2, "unit": "µg/mL"}, {"measurement": "MIC90", "setting": "S. aureus [1]; [4]", "value": 4, "unit": "µg/mL"}, {"measurement": "Maximum MIC", "setting": "S. aureus [1]; [4]", "value": 4, "unit": "µg/mL"}, {"measurement": "Minimum MIC", "setting": "S. aureus [1]; [4]", "value": 1, "unit": "µg/mL"}, {"measurement": "Number of isolates with MIC 1 μg/mL", "setting": "S. aureus [1]; [5]", "value": 5}, {"measurement": "Number of isolates with MIC 2 μg/mL", "setting": "S. aureus [1]; [5]", "value": 19}, {"measurement": "Number of isolates with MIC 4 μg/mL", "setting": "S. aureus [1]; [5]", "value": 26}, {"measurement": "MIC50", "setting": "coa-neg Staph.; [6]", "value": 2, "unit": "µg/mL"}, {"measurement": "MIC90", "setting": "coa-neg Staph.; [6]", "value": 4, "unit": "µg/mL"}, {"measurement": "Maximum MIC", "setting": "coa-neg Staph.; [6]", "value": 32, "unit": "µg/mL"}, {"measurement": "Minimum MIC", "setting": "coa-neg Staph.; [6]", "value": 1, "unit": "µg/mL"}, {"measurement": "Number of isolates with MIC 1 μg/mL", "setting": "coa-neg Staph.; [7]", "value": 4}, {"measurement": "Number of isolates with MIC 2 μg/mL", "setting": "coa-neg Staph.; [7]", "value": 13}, {"measurement": "Number of isolates with MIC 4 μg/mL", "setting": "coa-neg Staph.; [7]", "value": 11}, {"measurement": "Number of isolates with MIC 8 μg/mL", "setting": "coa-neg Staph.; [7]", "value": 1}, {"measurement": "Number of isolates with MIC 32 μg/mL", "setting": "coa-neg Staph.; [7]", "value": 1}, {"measurement": "MIC50", "setting": "Strep. agalactiae; [8]", "value": "≤0.063", "unit": "µg/mL"}, {"measurement": "MIC90", "setting": "Strep. agalactiae; [8]", "value": 0.125, "unit": "µg/mL"}, {"measurement": "Maximum MIC", "setting": "Strep. agalactiae; [8]", "value": 0.125, "unit": "µg/mL"}, {"measurement": "Minimum MIC", "setting": "Strep. agalactiae; [8]", "value": "≤0.063", "unit": "µg/mL"}, {"measurement": "Number of isolates with MIC 0.125 μg/mL", "setting": "Strep. agalactiae; [9]", "value": 13}, {"measurement": "Number of isolates with MIC ≤0.063 μg/mL", "setting": "Strep. agalactiae; [9]", "value": 17}, {"measurement": "MIC50", "setting": "Strep. dysgalactiae; [10]", "value": 0.125, "unit": "µg/mL"}, {"measurement": "MIC90", "setting": "Strep. dysgalactiae; [10]", "value": 0.25, "unit": "µg/mL"}, {"measurement": "Maximum MIC", "setting": "Strep. dysgalactiae; [10]", "value": 0.25, "unit": "µg/mL"}, {"measurement": "Minimum MIC", "setting": "Strep. dysgalactiae; [10]", "value": "≤0.063", "unit": "µg/mL"}, {"measurement": "Number of isolates with MIC 0.125 μg/mL", "setting": "Strep. dysgalactiae; [11]", "value": 23}, {"measurement": "Number of isolates with MIC 0.25 μg/mL", "setting": "Strep. dysgalactiae; [11]", "value": 5}, {"measurement": "Number of isolates with MIC ≤0.063 μg/mL", "setting": "Strep. dysgalactiae; [11]", "value": 1}, {"measurement": "MIC50", "setting": "S. uberis; [12]", "value": 0.5, "unit": "µg/mL"}, {"measurement": "MIC90", "setting": "S. uberis; [12]", "value": 0.5, "unit": "µg/mL"}, {"measurement": "Maximum MIC", "setting": "S. uberis; [12]", "value": 0.5, "unit": "µg/mL"}, {"measurement": "Minimum MIC", "setting": "S. uberis; [12]", "value": 0.125, "unit": "µg/mL"}, {"measurement": "Number of isolates with MIC 0.125 μg/mL", "setting": "S. uberis; [13]", "value": 1}, {"measurement": "Number of isolates with MIC 0.25 μg/mL", "setting": "S. uberis; [13]", "value": 12}, {"measurement": "Number of isolates with MIC 0.5 μg/mL", "setting": "S. uberis; [13]", "value": 17}, {"measurement": "MIC50", "setting": "Truep. pyogenes; [14]", "value": "≤0.063", "unit": "µg/mL"}, {"measurement": "MIC90", "setting": "Truep. pyogenes; [14]", "value": "≤0.063", "unit": "µg/mL"}, {"measurement": "Maximum MIC", "setting": "Truep. pyogenes; [14]", "value": 0.125, "unit": "µg/mL"}, {"measurement": "Minimum MIC", "setting": "Truep. pyogenes; [14]", "value": "≤0.063", "unit": "µg/mL"}, {"measurement": "Number of isolates with MIC 0.125 μg/mL", "setting": "Truep. pyogenes; [15]", "value": 1}, {"measurement": "Number of isolates with MIC ≤0.063 μg/mL", "setting": "Truep. pyogenes; [15]", "value": 29}, {"measurement": "Activity in milk", "setting": "S. aureus [2]", "value": "maintained its activity"}, {"measurement": "MIC90 against S. aureus compared with MIC90 of penicillin G", "setting": "S. aureus [2]", "value": "significantly lower"}, {"measurement": "Distribution of MIC values: isolates with MIC 0.125 μg/ml", "setting": "S. aureus [2]; S. aureus (n = 20)", "value": 0}, {"measurement": "Distribution of MIC values: isolates with MIC 0.25 μg/ml", "setting": "S. aureus [2]; S. aureus (n = 20)", "value": 0}, {"measurement": "Distribution of MIC values: isolates with MIC 0.5 μg/ml", "setting": "S. aureus [2]; S. aureus (n = 20)", "value": 1}, {"measurement": "Distribution of MIC values: isolates with MIC 1 μg/ml", "setting": "S. aureus [2]; S. aureus (n = 20)", "value": 1}, {"measurement": "Distribution of MIC values: isolates with MIC 2 μg/ml", "setting": "S. aureus [2]; S. aureus (n = 20)", "value": 1}, {"measurement": "Distribution of MIC values: isolates with MIC 4 μg/ml", "setting": "S. aureus [2]; S. aureus (n = 20)", "value": 16}, {"measurement": "Distribution of MIC values: isolates with MIC 8 μg/ml", "setting": "S. aureus [2]; S. aureus (n = 20)", "value": 1}, {"measurement": "Distribution of MIC values: isolates with MIC 16 μg/ml", "setting": "S. aureus [2]; S. aureus (n = 20)", "value": 0}, {"measurement": "Distribution of MIC values: isolates with MIC 32 μg/ml", "setting": "S. aureus [2]; S. aureus (n = 20)", "value": 0}, {"measurement": "Distribution of MIC values: isolates with MIC 64 μg/ml", "setting": "S. aureus [2]; S. aureus (n = 20)", "value": 0}, {"measurement": "Distribution of MIC values: isolates with MIC >64 μg/ml", "setting": "S. aureus [2]; S. aureus (n = 20)", "value": 0}, {"measurement": "Distribution of MIC values: isolates with MIC ≤0.063 μg/ml", "setting": "S. aureus [2]; S. aureus (n = 20)", "value": 0}, {"measurement": "MIC90", "setting": "S. aureus [2]; S. aureus (n = 20)", "value": 4, "unit": "µg/mL"}, {"measurement": "Proportion of quarters free of S. uberis compared to quarters treated with vehicle", "setting": "Streptococcus uberis", "value": "substantially higher"}, {"measurement": "Antimicrobial activity against mastitis-causing pathogens", "setting": "[3]", "value": "Good antimicrobial activity"}]}]}
